Laboratory results: ChEMBL document CHEMBL1157889, “Peripheral site acetylcholinesterase inhibitors targeting both inflammation and cholinergic dysfunction” (Bioorg Med Chem Lett, 2010)

Test system: not listed separately
Assay: Chemical stability assessed as hydrolysis half life in presence of 80% human plasma
Assay type: ADME, cell-free

Point of comparison: `CC(C)(C)CCOC(=O)Cc1ccccc1Nc1c(Cl)cccc1Cl`, t1/2 1.85 h. Against it:
- COc1ccc2cc([C@H](C)C(=O)OCC[Si](C)(C)C)ccc2c1 — 1.8-fold lower, 1.05 h
- COc1ccc2c(c1)c(CC(=O)OCc1ccc(OC(=O)OCCC(C)(C)C)cc1)c(C)n2C(=O)c1ccc(Cl)cc1 — 4.2-fold higher, 7.8 h
- CC(C)Cc1ccc(C(C)C(=O)OCc2ccc(OC(=O)OCCC(C)(C)C)cc2)cc1 (centres undefined) — 1.8-fold higher, 3.4 h
- CC(C)(C)CCOC(=O)Oc1ccc(COC(=O)Cc2ccccc2Nc2c(Cl)cccc2Cl)cc1 — 3.2-fold higher, 5.95 h
- COc1ccc2cc([C@H](C)C(=O)OCc3ccc(OC(=O)OCCC(C)(C)C)cc3)ccc2c1 — within 1.5-fold, 2.25 h
- COc1ccc2cc([C@H](C)C(=O)OCc3ccc(OC(=O)OCC[Si](C)(C)C)cc3)ccc2c1 — 2.3-fold higher, 4.22 h
- COc1ccc2cc([C@H](C)C(=O)OCCC(C)(C)C)ccc2c1 — 2.9-fold lower, 0.633 h

Target: Acetylcholinesterase (Electrophorus electricus, UniProt O42275)
Sequence (O42275 whole entry): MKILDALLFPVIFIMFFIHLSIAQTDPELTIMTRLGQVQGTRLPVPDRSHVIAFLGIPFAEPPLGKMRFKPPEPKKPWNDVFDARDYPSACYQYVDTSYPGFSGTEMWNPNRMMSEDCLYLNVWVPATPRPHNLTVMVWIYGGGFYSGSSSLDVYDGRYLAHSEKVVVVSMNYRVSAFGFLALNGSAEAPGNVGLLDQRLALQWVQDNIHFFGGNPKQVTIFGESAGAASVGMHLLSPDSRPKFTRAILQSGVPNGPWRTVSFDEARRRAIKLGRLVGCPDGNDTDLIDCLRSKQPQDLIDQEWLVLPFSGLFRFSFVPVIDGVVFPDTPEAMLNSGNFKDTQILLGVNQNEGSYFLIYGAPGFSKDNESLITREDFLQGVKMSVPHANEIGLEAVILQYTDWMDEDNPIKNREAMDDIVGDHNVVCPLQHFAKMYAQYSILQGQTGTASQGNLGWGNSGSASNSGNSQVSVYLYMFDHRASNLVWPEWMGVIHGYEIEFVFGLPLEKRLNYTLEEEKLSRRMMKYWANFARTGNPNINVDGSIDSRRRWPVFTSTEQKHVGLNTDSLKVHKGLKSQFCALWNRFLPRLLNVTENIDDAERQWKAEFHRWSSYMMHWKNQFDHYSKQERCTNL
Assay: Inhibition of electric eel AChE by Ellman's method

In the case of `CC(C)(C)CCOC(=O)Oc1ccc(COC(=O)Cc2ccccc2Nc2c(Cl)cccc2Cl)cc1`, the IC50 is reported as 510 nM.
